From ChEMBL document CHEMBL3352146, “Cytotoxic aaptamine derivatives from the South China Sea sponge Aaptos aaptos” (J Nat Prod, 2014)

Experiments:
MCF7 = test: Cytotoxicity against human MCF7 cells after 72 hrs by methylene blue assay; details: MCF7, 72 h
K562 = test: Cytotoxicity against human K562 cells after 48 hrs by trypan blue exclusion method; type: functional, cell-based; details: K562, 48 h
KB = test: Cytotoxicity against human KB cells after 72 hrs by methylene blue assay
HT-29 = test: Cytotoxicity against human HT-29 cells after 72 hrs by methylene blue assay; details: HT-29, 72 h
HepG2 = test: Cytotoxicity against human HepG2 cells after 72 hrs by methylene blue assay; details: HepG2, 72 h
[1] = Cytotoxicity against human HL60 cells after 48 hrs by trypan blue exclusion method; type: functional, cell-based; details: HL-60, 48 h

Structure (SMILES) | IC50 (MCF7) | IC50 (K562) | IC50 (KB) | IC50 (HT-29) | IC50 (HepG2) | IC50 [1]
COc1cc2ccn3c(CC(C)C)nc4c(=O)[nH]c(c1OC)c2c43 | > 10 µg/mL | > 10 µg/mL | > 10 µg/mL | > 10 µg/mL | > 10 µg/mL | > 10 µg/mL
CCOC1=Nc2c(N)c(OC)cc3ccnc(c23)C1=O | 1200 nM | 220 nM | 660 nM | 6600 nM | 600 nM | 110 nM
COC1=Cc2ccnc3c(NCC(C)C)cnc(c23)C1=O | 2300 nM | 460 nM | 1100 nM | 8500 nM | 1000 nM | 280 nM
COC1=Cc2ccnc3c(NCCC(C)C)cnc(c23)C1=O | 440 nM | 90 nM | 110 nM | 1800 nM | 170 nM | 30 nM
COC1=Cc2ccnc3c(NCCc4ccccc4)cnc(c23)C1=O | 400 nM | 90 nM | 120 nM | 2200 nM | 200 nM | 30 nM
COC1=Cc2ccnc3c4c(nc(c23)C1=O)CCCN4 | > 10 µg/mL | > 10 µg/mL | > 10 µg/mL | > 10 µg/mL | > 10 µg/mL | > 10 µg/mL
CCC(C)c1nc2c(=O)[nH]c3c(OC)c(OC)cc4ccn1c2c43 (configuration not stated) | > 10 µg/mL | > 10 µg/mL | > 10 µg/mL | > 10 µg/mL | > 10 µg/mL | > 10 µg/mL
COc1cc2ccn3c(C(C)C)nc4c(=O)[nH]c(c1OC)c2c43 | > 10 µg/mL | > 10 µg/mL | > 10 µg/mL | > 10 µg/mL | > 10 µg/mL | > 10 µg/mL
CCOc1nc2c(=O)[nH]c3c(OC)c(OC)cc4ccn1c2c43 | > 10 µg/mL | > 10 µg/mL | > 10 µg/mL | > 10 µg/mL | > 10 µg/mL | > 10 µg/mL
CCC(C)CNc1cnc2c3c(ccnc13)C=C(OC)C2=O (configuration not stated) | > 10 µg/mL | > 10 µg/mL | > 10 µg/mL | > 10 µg/mL | > 10 µg/mL | > 10 µg/mL
CCOC(=O)CCCNc1cnc2c3c(ccnc13)C=C(OC)C2=O | > 10 µg/mL | > 10 µg/mL | > 10 µg/mL | > 10 µg/mL | > 10 µg/mL | > 10 µg/mL
CNc1cnc2c3c(ccnc13)C=C(OC)C2=O | > 10 µg/mL | > 10 µg/mL | > 10 µg/mL | > 10 µg/mL | > 10 µg/mL | > 10 µg/mL
CC(=O)O[C@H]1C(=O)[C@@]2(C)[C@H]([C@H](OC(=O)c3ccccc3)[C@]3(O)C[C@H](OC(=O)[C@H](O)[C@@H](NC(=O)c4ccccc4)c4ccccc4)C(C)=C1C3(C)C)[C@]1(OC(C)=O)CO[C@@H]1C[C@@H]2O [PACLITAXEL] | 3.2 nM | 2.4 nM | – | 3.5 nM | 2.7 nM | 1.5 nM
